Measurements: patent US20030008012A1, “Composition for rectal delivery of an oxazolidinone antibacterial drug” (priority 2001, published 2003)

Experiment: Linezolid concentration in blood plasma of beagle dogs after rectal administration of one suppository
Assay type: in vivo
Conditions: dog, other: rectal
Protocol: One 20 mg linezolid suppository prepared as above was rectally administered to each of four beagle dogs, and the concentration of linezolid in blood plasma of the dogs was determined at different times after administration, as presented in Table 2.
One 600 mg linezolid suppository prepared as above was rectally administered to each of four beagle dogs and the concentration of linezolid in blood plasma of the dogs was determined at different times after administration, as presented in Table 3.

[1] = 20 mg, Example 2 solution suppository, 20 mg linezolid, Dog 1 (15.2 kg)
[2] = 20 mg, Example 2 solution suppository, 20 mg linezolid, Dog 2 (13.7 kg)
[3] = 20 mg, Example 2 solution suppository, 20 mg linezolid, Dog 3 (10.5 kg)
[4] = 20 mg, Example 2 solution suppository, 20 mg linezolid, Dog 4 (12.2 kg)
[5] = 600 mg, Example 5 particulate dispersion suppository, 600 mg linezolid, Dog 1 (15.0 kg)
[6] = 600 mg, Example 5 particulate dispersion suppository, 600 mg linezolid, Dog 2 (13.4 g)
[7] = 600 mg, Example 5 particulate dispersion suppository, 600 mg linezolid, Dog 3 (10.1 kg)
[8] = 600 mg, Example 5 particulate dispersion suppository, 600 mg linezolid, Dog 4 (12.5 kg)

## CC(=O)NC[C@H]1CN(c2ccc(N3CCOCC3)c(F)c2)C(=O)O1 [Linezolid, (S)-N-[[3-[3-fluoro-4-(4-morpholinyl)phenyl]-2-oxo-5-oxazolidinyl]methyl]acetamide]
[1]
  concentration at 0.25 h: 47.6 ng/mL
  concentration at 0.5 h: 132 ng/mL
  concentration at 0.75 h: 168 ng/mL
  concentration at 1 h: 209 ng/mL
  concentration at 1.5 h: 267 ng/mL
  concentration at 2 h: 354 ng/mL
  concentration at 2.5 h: 417 ng/mL
  concentration at 3 h: 364 ng/mL
[2]
  concentration at 0.25 h: 54.6 ng/mL
  concentration at 0.5 h: 136 ng/mL
  concentration at 0.75 h: 189 ng/mL
  concentration at 1 h: 197 ng/mL
  concentration at 1.5 h: 179 ng/mL
  concentration at 2 h: 238 ng/mL
  concentration at 2.5 h: 171 ng/mL
  concentration at 3 h: 146 ng/mL
[3]
  concentration at 0.25 h: 134 ng/mL
  concentration at 0.5 h: 305 ng/mL
  concentration at 0.75 h: 340 ng/mL
  concentration at 1 h: 388 ng/mL
  concentration at 1.5 h: 423 ng/mL
  concentration at 2 h: 351 ng/mL
  concentration at 2.5 h: 331 ng/mL
  concentration at 3 h: 317 ng/mL
[4]
  concentration at 0.25 h: 80.7 ng/mL
  concentration at 0.5 h: 204 ng/mL
  concentration at 0.75 h: 291 ng/mL
  concentration at 1 h: 394 ng/mL
  concentration at 1.5 h: 532 ng/mL
  concentration at 2 h: 548 ng/mL
  concentration at 2.5 h: 550 ng/mL
  concentration at 3 h: 556 ng/mL
[5]
  concentration at 0.25 h: 1110 ng/mL
  concentration at 0.5 h: 2250 ng/mL
  concentration at 0.75 h: 3840 ng/mL
  concentration at 1 h: 5010 ng/mL
  concentration at 1.5 h: 6260 ng/mL
  concentration at 2 h: 7230 ng/mL
  concentration at 2.5 h: 7980 ng/mL
  concentration at 3 h: 8480 ng/mL
[6]
  concentration at 0.25 h: 770 ng/mL
  concentration at 0.5 h: 1240 ng/mL
  concentration at 0.75 h: 1940 ng/mL
  concentration at 1 h: 2610 ng/mL
  concentration at 1.5 h: 3490 ng/mL
  concentration at 2 h: 3570 ng/mL
  concentration at 2.5 h: 5010 ng/mL
  concentration at 3 h: 4730 ng/mL
[7]
  concentration at 0.25 h: 444 ng/mL
  concentration at 0.5 h: 1110 ng/mL
  concentration at 0.75 h: 1680 ng/mL
  concentration at 1 h: 2540 ng/mL
  concentration at 1.5 h: 3460 ng/mL
  concentration at 2 h: 4840 ng/mL
  concentration at 2.5 h: 5510 ng/mL
  concentration at 3 h: 6570 ng/mL
[8]
  concentration at 0.25 h: 1100 ng/mL
  concentration at 0.5 h: 1720 ng/mL
  concentration at 0.75 h: 1930 ng/mL
  concentration at 1 h: 2640 ng/mL
  concentration at 1.5 h: 4260 ng/mL
  concentration at 2 h: 4810 ng/mL
  concentration at 2.5 h: 6060 ng/mL
  concentration at 3 h: 7480 ng/mL
